In patent publication US8431715B2, “Thiazole compound (as PPARδ) ligand and pharmaceutical, cosmetic and health food comprised thereof” (Seoul National University Industry Foundation, priority 2007, dated 2013):
Like-named read-outs stand apart in the source and are kept apart here. Values belong to the compound of their own block, whether it stands above or below them.

Key:
C57BL/6 mice [1] = test: Obesity inhibitory effect, high-fat feed; type: in vivo; details: 10 mg/Kg/day oral, 35% fat feed for 35 days; vehicle 58.9%
Protocol: An animal test using mice was performed to confirm the in vivo effect of the compound of the present invention. C57BL/6 (SLC Co.) mice at 14 weeks were used. To induce obesity, feeds containing 35% fat were given.

mice = test: GTT (glucose tolerance test), diabetes improving effect; type: in vivo; details: glucose 1.5 g/Kg intra-abdominal, oral pre-treatment 78 days
Protocol: GTT (glucose tolerance test) was performed to confirm the diabetes improving effect of the compound of the present invention. Glucose (1.5 g/Kg) was intra-abdominally administered to the mice pre-treated orally with samples for 78 days. Blood glucose was measured every hour. Fasting blood glucose was lower in the group treated with the compound of the present invention than in the group treated with vehicle or GW501516.

C57BL/6 mice [2] = test: Hyperlipidemia improving effect, blood HDL level; type: in vivo; details: 10 mg/kg/day oral, high fat feeds, 6 weeks, serum
Protocol: In vivo animal test using C57BL/6 (SLC Co.) mice at 6 weeks was performed to confirm the hyperlipidemia improving effect of the compound of the present invention. […] 6 weeks later, blood was taken from orbital veins. Serum was separated and blood HDL level was measured by biochemical method.

PPARδ [3] = target: T1, PPARδ (Homo sapiens, UniProt Q03181); details: literature; cited from earlier work
T1 sequence (Q03181 1-441): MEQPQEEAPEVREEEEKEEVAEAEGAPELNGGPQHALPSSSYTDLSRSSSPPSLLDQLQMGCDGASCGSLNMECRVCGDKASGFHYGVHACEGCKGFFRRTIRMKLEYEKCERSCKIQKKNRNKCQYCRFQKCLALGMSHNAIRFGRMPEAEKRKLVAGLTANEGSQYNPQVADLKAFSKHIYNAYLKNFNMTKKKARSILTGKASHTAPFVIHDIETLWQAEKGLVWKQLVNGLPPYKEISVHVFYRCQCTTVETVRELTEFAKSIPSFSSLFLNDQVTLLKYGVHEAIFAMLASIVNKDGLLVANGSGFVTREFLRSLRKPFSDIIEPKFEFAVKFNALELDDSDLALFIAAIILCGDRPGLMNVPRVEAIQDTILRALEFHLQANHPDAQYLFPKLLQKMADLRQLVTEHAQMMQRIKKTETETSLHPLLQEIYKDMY

PPARα = target: T2, PPARα (Homo sapiens, UniProt Q07869); test: Transfection assay (luciferase reporter) in CV-1 cells, PPARα; type: cell-based; details: 24 hours treatment
T2 construct: Full length PPARs plasmid DNA, reporter DNA confirming PPARs activity owing to its luciferase activity; expressed in transfected cells; host or cells: CV-1 cells
T2 sequence (Q07869 1-468): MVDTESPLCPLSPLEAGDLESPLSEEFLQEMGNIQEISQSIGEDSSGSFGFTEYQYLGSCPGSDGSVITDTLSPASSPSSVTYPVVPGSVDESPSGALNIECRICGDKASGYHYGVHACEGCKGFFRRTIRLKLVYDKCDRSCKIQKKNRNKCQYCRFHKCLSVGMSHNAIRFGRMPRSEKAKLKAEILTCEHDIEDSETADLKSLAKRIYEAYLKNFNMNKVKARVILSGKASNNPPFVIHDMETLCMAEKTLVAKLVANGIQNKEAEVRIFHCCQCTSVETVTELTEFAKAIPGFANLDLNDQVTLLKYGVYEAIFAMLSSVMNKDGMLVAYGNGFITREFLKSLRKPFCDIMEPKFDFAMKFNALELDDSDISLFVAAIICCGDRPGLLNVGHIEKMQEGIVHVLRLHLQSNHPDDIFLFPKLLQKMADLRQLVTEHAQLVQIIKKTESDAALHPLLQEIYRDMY
Protocol: (§1) The PPARδ activities of the R-form compound represented by formula 1 of the present invention and the S-form compound represented by formula 2 were measured by transfection assay. In addition, the selectivity to PPAR subtypes, PPARα and PPARγ, was examined. Cytotoxicity was tested by MTT assay and in vivo activity and toxicity was investigated by animal experiment using mice.
(§2) CV-1 cells were used in this assay. The cells were inoculated in a 96-well plate containing DMEM supplemented with 10% FBS, DBS (delipidated) and 1% penicillin/streptomycin and cultured in a 37 °C, 5% CO2 incubator. The experiment was performed according to the steps of inoculation, transfection, sample treatment and confirmation. Particularly, CV-1 cells were inoculated in a 96 well-plate (5000 cells/well), followed by transfection 24 hours later. Full length PPARs plasmid DNA, reporter DNA confirming PPARs activity owing to its luciferase activity, β-galactosidase DNA providing information on transfection efficiency, and transfection reagent were used for the transfection. The compounds of formula 1 and formula 2 were dissolved in dimethylsulfoxide (DMSO), which were treated to the cells via media at different concentrations. […] Luciferase activity and β-galactosidaseactivity were measured with Luminometer and a microplate reader. […] A graph was made with those values and EC50 was calculated.

PPARγ = target: T3, PPARγ (Homo sapiens, UniProt P37231); test: Transfection assay (luciferase reporter) in CV-1 cells, PPARγ; type: cell-based; details: 24 hours treatment
T3 construct: Full length PPARs plasmid DNA, reporter DNA confirming PPARs activity owing to its luciferase activity; expressed in transfected cells; host or cells: CV-1 cells
T3 sequence (P37231 1-505): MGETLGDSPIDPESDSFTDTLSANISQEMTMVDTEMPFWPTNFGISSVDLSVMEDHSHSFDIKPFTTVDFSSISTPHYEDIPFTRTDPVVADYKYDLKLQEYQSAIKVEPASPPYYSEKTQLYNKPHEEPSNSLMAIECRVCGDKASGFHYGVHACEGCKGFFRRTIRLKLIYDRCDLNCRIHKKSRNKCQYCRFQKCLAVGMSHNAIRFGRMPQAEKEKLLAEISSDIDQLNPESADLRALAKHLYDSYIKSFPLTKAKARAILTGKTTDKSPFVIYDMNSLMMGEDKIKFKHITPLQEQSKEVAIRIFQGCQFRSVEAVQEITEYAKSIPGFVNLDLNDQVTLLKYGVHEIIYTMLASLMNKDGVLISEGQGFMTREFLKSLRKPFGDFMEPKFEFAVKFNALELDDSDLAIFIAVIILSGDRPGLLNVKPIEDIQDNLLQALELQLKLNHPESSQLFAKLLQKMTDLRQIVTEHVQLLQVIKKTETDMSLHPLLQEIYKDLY
Protocol: as §1, §2

CV-1 cells = test: MTT assay, cytotoxicity; type: cell-based; details: 24 hours, even at the concentration of 100,000 times the EC50 value
Protocol: MTT assay was performed to test cytotoxicity of the compounds of the present invention. MTT is a yellow substance soluble in water, but when it is introduced into a living cell, it turns into a purple insoluble crystal by dehydrogenase in mitochondria. Cytotoxicity can be confirmed by measuring OD550 after dissolving MTT in dimethylsulfoxide. The experiment was performed as follows.
CV-1 cells were inoculated in a 96-well plate (5000 cells/well). The cells were cultured in a 37[…] 5% CO2 incubator for 24 hours, and treated with the compounds of formula 1 and formula 2 at different concentrations. Then, the cells were cultured for 24 hours again, to which MTT reagent was added. After culturing for 15 minutes, the generated purple crystals were dissolved in dimethylsulfoxide. Optical density was measured with a microplate reader to confirm cytotoxicity.

PPARδ [4] = target: T1, PPARδ; test: Transfection assay (luciferase reporter) in CV-1 cells, PPARδ; type: cell-based; set-up: Full length PPARs plasmid DNA, reporter DNA confirming PPARs activity owing to its luciferase activity; expressed in transfected cells; host or cells: CV-1 cells; details: CV-1 cells, 24 hours treatment
Protocol: as §1
CV-1 cells were used in this assay. The cells were inoculated in a 96-well plate containing DMEM supplemented with 10% FBS, DBS (delipidated) and 1% penicillin/streptomycin and cultured in a 37 °C, 5% CO2 incubator. The experiment was performed according to the steps of inoculation, transfection, sample treatment and confirmation. Particularly, CV-1 cells were inoculated in a 96 well-plate (5000 cells/well), followed by transfection 24 hours later. Full length PPARs plasmid DNA, reporter DNA confirming PPARs activity owing to its luciferase activity, β-galactosidase DNA providing information on transfection efficiency, and transfection reagent were used for the transfection. The compounds of formula 1 and formula 2 were dissolved in dimethylsulfoxide (DMSO), which were treated to the cells via media at different concentrations. After culturing the cells in the incubator for 24 hours, the cells were lysed by using lysis buffer. Luciferase activity and β-galactosidaseactivity were measured with Luminometer and a microplate reader. The obtained values of luciferase were modified by the values of β-galactosidase. A graph was made with those values and EC50 was calculated.

SMILES: Cc1cc(SCc2sc(-c3ccc(C(F)(F)F)cc3)nc2C)ccc1OCC(=O)O [GW501516, [2-methyl-4-[[[4-methyl-2-[4-(trifluoromethyl)phenyl]-1,3-thiazol-5-yl]methyl]sulfanyl]phenoxy]acetic acid, reference compound]
weight increase (C57BL/6 mice [1]): 26.5%
blood glucose compared with vehicle (mice): lower blood glucose than the vehicle treated group
recovery of blood glucose level to normal (mice): not recovered to normal
HDL level increase compared with the control (C57BL/6 mice [2]): 36.3%

SMILES: CCCc1c(OCCCOc2ccc(OCC(=O)O)cc2)ccc(C(C)=O)c1O [L-165041]
EC50 (PPARδ [3]): 530 nM
selectivity to hPPARδ over PPARα or PPARγ (PPARδ [3]): 10 times

EC50 PPARα (PPARα): ia
EC50 PPARγ (PPARγ): ia
EC50 (PPARδ [4]): 5.1 nM
SMILES: Cc1cc(S[C@@H](Cc2ccccc2)c2sc(-c3ccc(C(F)(F)F)cc3)nc2C)ccc1OCC(=O)O [formula 2]
cytotoxicity (CV-1 cells): not to have cytotoxicity
